# Key:
# Format in all cases: in vivo, human
# [1] = tested on: patients enrolled in the dal-OUTCOMES trial; assay: Repeated measures mixed model regression of treatment arm for fasting plasma glucose and whole-blood HbA1c per genotype and diabetes status; conditions: all rs1967309 genotypes, diabetic and non-diabetic, with and without age and sex; except AG diabetic patients
# Description: The effect of ADCY9 rs1967309 genotypes on patient HbA1C and glucose levels was retrospectively assessed in patients enrolled in the dal-OUTCOMES trial.
# Inclusion Criteria: Patients 45 years of age or older who provided written informed consent were eligible to participate if they had been hospitalized for an acute coronary syndrome characterized by elevated cardiac biomarkers, with symptoms of acute myocardial ischemia, ischemic electrocardiographic abnormalities that were new or presumed to be new, or loss of viable myocardium on imaging. Patients without elevated cardiac biomarkers were eligible to participate if symptoms of acute myocardial ischemia were accompanied by electrocardiographic changes that were new or presumed to be new and by additional evidence of obstructive coronary disease. […] However, no specific statin agent or dose was specified, and patients were not excluded if their LDL cholesterol level remained above 100 mg per deciliter. There were no exclusions on the basis of patients' HDL cholesterol level. […] The patients began a single-blind placebo-based run-in period of approximately 4 to 6 weeks to allow for patients to stabilize and for completion of any planned revascularization procedures. […]
# [2] = tested on: patients of the dal-OUTCOMES trial; assay: Repeated measures mixed regression of treatment arm for HbA1c, all patients and per genotype (Example 2); conditions: all patients combined and each rs1967309 genotype; with and without covariates
# Description: The effect of dalcetrapib on whole-blood HbA1c levels irrespective of genotype and the impact of dalcetrapib on risk of new onset diabetes were retrospectively assessed in patients of the dal-OUTCOMES trial. The descriptive statistics and analyses were performed using SAS 9.4 software.
# [3] = tested on: patients of the dal-OUTCOMES trial; assay: Cox proportional hazards regression of dalcetrapib treatment arm for association with new onset diabetes
# Description: The effect of dalcetrapib on whole-blood HbA1c levels irrespective of genotype and the impact of dalcetrapib on risk of new onset diabetes were retrospectively assessed in patients of the dal-OUTCOMES trial. The descriptive statistics and analyses were performed using SAS 9.4 software. Diabetes at baseline was defined based on at least one of the following patient criteria: (1) diagnosis of diabetics at baseline in the dal-OUTCOMES trial; (2) whole-blood HbA1c level>=6.5% at baseline; (3) fasting glucose level>=7.0 mmol/L at baseline; and (4) use of diabetes medication at or before baseline. New onset diabetes was defined in non-diabetic patients at baseline based on at least one of the following patient criteria: (1) adverse event (AE) preferred terms “type 2 diabetes mellitus” OR “diabetes mellitus” from the AE file that occurred after randomization; (2) use of diabetes medication that was initiated after randomization; (2) at least one whole-blood HbA1c measurement of >=6.5% after randomization; and (4) at least one fasting glucose measurement of >=126 mg/dl or >=7.0 mmol/L after randomization. Cox proportional hazards regression of dalcetrapib treatment arm for association with new onset diabetes was assessed. There were 598 (14%) new onset diabetes cases in the 4173 non-diabetics at baseline.
# [4] = tested on: uncontrolled diabetic patients of the dal-OUTCOMES trial; assay: Effect of dalcetrapib on whole-blood HbA1c in uncontrolled diabetics
# Description: The effect of dalcetrapib in uncontrolled diabetics defined once as HbA1c>7% at baseline or once as >7.5% at baseline was retrospectively assessed in patients of the dal-OUTCOMES trial. The descriptive statistics and analyses were performed using SAS 9.4 software. Two populations of uncontrolled diabetics at baseline were defined: patients having a whole-blood HbA1c level of >7 (n=437) and patients having a whole-blood HbA1c level of >7.5 (n=280).
smiles,measurement,setting,value
CCC(CC)CC1(C(=O)Nc2ccccc2SC(=O)C(C)C)CCCCC1 [dalcetrapib],significance of dalcetrapib treatment arm for outcome HbA1c,[1],significant
same,dalcetrapib treatment arm as predictor of HbA1c,[2],significant predictor of reduced HbA1c
same,effect of dalcetrapib on new onset diabetes,[3]; non-diabetic patients at baseline,trend for a protective effect
same,association of new onset diabetes with dalcetrapib treatment arm,"[3]; non-diabetic patients at baseline, all combined and each genotype, P<0.05, with and without covariates",not found to be significantly associated
same,association with treatment arm,"[3]; patients with diabetes at baseline and AA genotype, with and without covariates, patients with events n=27",significant association with treatment arm
same,association of treatment arm (dalcetrapib versus placebo) with whole-blood HbA1c at M06,"[4]; HbA1c >7 at baseline, genotype rs1967309/AA, without adjustment for covariates, significance level 5%",associated with a decrease in whole-blood HbA1c
same,"repeated measures analysis, natural logarithm of HbA1C at 6, 12 and 24 months","[4]; uncontrolled diabetic patients, mixed regression models",confirmed by repeated measures analysis
same,mean ln(HbA1c) in the dalcetrapib treatment arm,"[4]; uncontrolled diabetics, versus placebo arm",lower than in the placebo arm
